Measured values taken from the SangsterLogP compilation.

Assay: method code SF-AS, from PMID: 9631499

logP | SMILES
2.83 | Clc1ccc(C=NOCCc2nnc(-c3ccccc3)[nH]2)cc1
4.1 | Cc1ccc(-c2nnc(CCON=Cc3ccc(Cl)cc3Cl)[nH]2)cc1
4.28 | Cc1cccc(-c2nnc(CCON=Cc3ccc(Cl)cc3Cl)o2)c1
3.57 | Cc1ccc(-c2nnc(CCON=Cc3ccc(Cl)cc3)o2)cc1
3.39 | Cc1ccc(-c2nnc(CCON=Cc3ccc(Cl)cc3)[nH]2)cc1
4.1 | Cc1cccc(-c2nnc(CCON=Cc3ccc(Cl)cc3Cl)[nH]2)c1
3.57 | Cc1ccc(C=NOCCc2nnc(-c3cccc(C)c3)o2)cc1
3.39 | Cc1cccc(-c2nnc(CCON=Cc3ccc(Cl)cc3)[nH]2)c1
3.01 | Clc1ccc(C=NOCCc2nnc(-c3ccccc3)o2)cc1
4.28 | Cc1ccc(-c2nnc(CCON=Cc3ccc(Cl)cc3Cl)o2)cc1
3.72 | Clc1ccc(C=NOCCc2nnc(-c3ccccc3)o2)c(Cl)c1
